Test results as given in US8962001B2, “Nuclease inhibitors and methods for their use” (Wisconsin Alumni Research Foundation, priority 2004, dated 2015).

Columns and labels:
ribonuclease A = target: T1, ribonuclease A (Bos taurus, UniProt P61823); assay: Inhibition of RNase A catalysis, fluorescence assay with 6-FAM~dArUdAdA~6-TAMRA; type: biochemical; conditions: solutions of low salt concentration
T1 construct: made in house
T1 sequence (P61823 27-150): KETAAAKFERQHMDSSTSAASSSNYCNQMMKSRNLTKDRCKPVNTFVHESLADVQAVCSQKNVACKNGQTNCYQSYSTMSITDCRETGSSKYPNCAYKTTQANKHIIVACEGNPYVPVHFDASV
Method: Inhibition of RNase A Catalysis—Inhibition of ribonucleolytic activity was measured by using either poly(C) or a fluorogenic substrate. The total cytidyl concentration of poly(C) was quantitated using ε=6,200 M^−1 cm^−1 at 268 nm (Yakovlev et al., 1992). The cleavage of poly(C) was monitored by the decrease in ultraviolet hypochromicity. The Δε value for this reaction calculated from the difference in molar absorptivity of the polymeric substrate and the mononucleotide cyclic phosphate product was 2,380 M^−1 cm^−1 at 250 nm (delCardayre and Raines, 1994). Assays were performed at 25° C. in 50 mM imidazole-HCl buffer, pH 6.0, containing NaCl (0.10 M), poly(C) (10 μM-1.5 mM), OVS (0-1.43 μM), and enzyme (1.0 nM).
Molar values of OVS were calculated by using the number average molecular mass (Mn) of 2,000 g/mol (value provided by the manufacturer and said to be measured by GPC, Polysciences.) It is possible that an oligomer of this size could bind two enzymes. Thus, the actual Ki values could be 2-fold higher. Kinetic parameters were determined from initial velocity data with the program DELTA-GRAPH 4.0 (DeltaPoint, Monterey, Calif.). For the fluorescence assay, the inhibition of ribonucleolytic activity was assessed at 25° C. in 2.0 ml of 50 mM imidazole-HCl buffer, pH 6.0, containing NaCl (0-0.25 M), 6-FAM˜dArUdAdA˜6-TAMRA (60 nM), and RNase A ([…]) as described previously (Kelemen et al., 1999; Park et al., 2001). Fluorescence (F) was measured using 493 and 515 nm as the excitation and emission wavelengths, respectively. The value of ΔF/Δt was measured for 3 min after the addition of RNase A. An aliquot of inhibitor (I) dissolved in the dissolved in the assay buffer was added next, and ΔF/Δt was measured in the presence of the inhibitor for 3 min. The concentration of inhibitor in the assay was doubled repeatedly in 3-min intervals. Excess RNase A was then added to the mixture to ensure that […] substrate had been cleaved prior to completion of the inhibition assay. Apparent changes in ribonucleolytic activity due to dilution were corrected by comparing values to an assay in which aliquots of buffer were added to the assay. Values of Ki were determined by non-linear least squares regression analysis of data fitted to Equation 1 (Kelemen et al., 1999; Park et al., 2001). ΔF/Δt=(ΔF/Δt)0(Ki/(Ki+[I])) (Eq. 1)
At 0 M NaCl, the enzyme concentration ([E] total) caused a significant depletion in inhibitor concentration, thus the data were fitted to Equation 2, which describes tight-binding inhibition (Henderson, 1972). ΔF/Δt=((ΔF/Δt)0/2[E]total){[(Ki+[I]−[E]total]^2+4Ki[E]total)^1/2−(Ki+[I]−[E]total)} (Eq. 2) In Equations 1 and 2, ( )F/ )t)0 was the ribonucleolytic activity prior to inhibitor addition.

RNase A = target: T2, RNase A (Bos taurus, UniProt P61823); conditions: similar buffer conditions with 0.10 M NaCl; cited from earlier work
T2 sequence (P61823 27-150): T1 sequence (P61823 27-150)

| Structure (SMILES) | inhibition of RNase A by buffer synthesis byproducts (words) (ribonuclease A) | inhibition of RNase A by buffer synthesis byproducts (words) (ribonuclease A; listed as 2-OH ethanesulfonic acid) | inhibition of RNase A by buffer synthesis byproducts (words) (ribonuclease A; listed as diethanesulfonic acid) | Ki (RNase A) [nM] | inhibition of RNase A by buffer synthesis byproducts (words) (ribonuclease A; listed as vinyl sulfonic acid) |
| --- | --- | --- | --- | --- | --- |
| O=S(=O)(O)CCO [2-hydroxyethanesulfonic acid] | Neither of these species was found to be a potent inhibitor | None of these three materials was found, when tested, to exhibit inhibitory activity | – | – | – |
| O=S(=O)(O)CCOCCS(=O)(=O)O [Diethanesulfonic acid ether, diethanesulfonic acid ether] | failed to inhibit RNase A | – | None of these three materials was found, when tested, to exhibit inhibitory activity | – | – |
| Nc1ncnc2c1ncn2[C@@H]1O[C@H](COP(=O)(O)OP(=O)(O)O[C@H]2C[C@H](n3ccc(=O)[nH]c3=O)O[C@@H]2COP(=O)(O)O)[C@@H](OP(=O)(O)O)[C@H]1O [pdUppA-3′-p] | – | – | – | ~120 | – |
| C=CS(=O)(=O)O [vinylsulfonic acid] | Neither of these species was found to be a potent inhibitor | – | – | – | None of these three materials was found, when tested, to exhibit inhibitory activity |
